Measurements taken from paper PMC7523345 (Investigational new drugs, 2018).

Test: Phase I dose escalation study: safety, tolerability, DLT and MTD
Type: in vivo

Cc1cccc2c1NC(=O)[C@@H](NC(=O)[C@H](CCC(F)(F)F)[C@H](CCC(F)(F)F)C(N)=O)N=C2c1cccc(F)c1 [BMS-986115]
Abdominal pain (drug related AE, all grades) (Arm B BIW 2 mg (N = 2)): 1 (50) n (%) | Blood creatinine increased (drug related AE, all grades) (Arm B BIW 2 mg (N = 2)): 0 n (%) | Colitis (drug related AE, Grade 3 and 4) (Arm B BIW 2 mg (N = 2)): 0 n (%) | Cough (drug related AE, Grade 3 and 4) (Arm B BIW 2 mg (N = 2)): 0 n (%) | Cough (drug related AE, all grades) (Arm B BIW 2 mg (N = 2)): 0 n (%) | Decreased Appetite (drug related AE, Grade 3 and 4) (Arm B BIW 2 mg (N = 2)): 0 n (%) | Decreased Appetite (drug related AE, all grades) (Arm B BIW 2 mg (N = 2)): 0 n (%) | Dehydration (drug related AE, Grade 3 and 4) (Arm B BIW 2 mg (N = 2)): 0 n (%) | Dehydration (drug related AE, all grades) (Arm B BIW 2 mg (N = 2)): 0 n (%) | Dermatitis acneiform (drug related AE, all grades) (Arm B BIW 2 mg (N = 2)): 0 n (%) | Diarrhoea (drug related AE, Grade 3 and 4) (Arm B BIW 2 mg (N = 2)): 1 (50) n (%) | Diarrhoea (drug related AE, all grades) (Arm B BIW 2 mg (N = 2)): 1 (50) n (%) | Dry mouth (drug related AE, all grades) (Arm B BIW 2 mg (N = 2)): 0 n (%) | Dry skin (drug related AE, all grades) (Arm B BIW 2 mg (N = 2)): 0 n (%) | Dysgeusia (drug related AE, all grades) (Arm B BIW 2 mg (N = 2)): 0 n (%) | Dyspepsia (drug related AE, all grades) (Arm B BIW 2 mg (N = 2)): 1 (50) n (%) | Dysphonia (drug related AE, all grades) (Arm B BIW 2 mg (N = 2)): 0 n (%) | Fatigue (drug related AE, Grade 3 and 4) (Arm B BIW 2 mg (N = 2)): 0 n (%) | Fatigue (drug related AE, all grades) (Arm B BIW 2 mg (N = 2)): 1 (50) n (%) | Flatulence (drug related AE, all grades) (Arm B BIW 2 mg (N = 2)): 0 n (%) | Hypocalcaemia (drug related AE, Grade 3 and 4) (Arm B BIW 2 mg (N = 2)): 0 n (%) | Hypocalcaemia (drug related AE, all grades) (Arm B BIW 2 mg (N = 2)): 0 n (%) | Hypokalaemia (drug related AE, Grade 3 and 4) (Arm B BIW 2 mg (N = 2)): 0 n (%) | Hypokalaemia (drug related AE, all grades) (Arm B BIW 2 mg (N = 2)): 0 n (%) | Hyponatraemia (drug related AE, Grade 3 and 4) (Arm B BIW 2 mg (N = 2)): 0 n (%) | Hyponatraemia (drug related AE, all grades) (Arm B BIW 2 mg (N = 2)): 0 n (%) | Hypophosphataemia (drug related AE, Grade 3 and 4) (Arm B BIW 2 mg (N = 2)): 1 (50) n (%) | Hypophosphataemia (drug related AE, all grades) (Arm B BIW 2 mg (N = 2)): 1 (50) n (%) | Ileus (drug related AE, Grade 3 and 4) (Arm B BIW 2 mg (N = 2)): 0 n (%) | Increased upper airway secretion (drug related AE, all grades) (Arm B BIW 2 mg (N = 2)): 0 n (%) | Laryngeal pain (drug related AE, all grades) (Arm B BIW 2 mg (N = 2)): 0 n (%) | Leucocytosis (drug related AE, Grade 3 and 4) (Arm B BIW 2 mg (N = 2)): 0 n (%) | Mouth ulceration (drug related AE, all grades) (Arm B BIW 2 mg (N = 2)): 0 n (%) | Nausea (drug related AE, Grade 3 and 4) (Arm B BIW 2 mg (N = 2)): 0 n (%) | Nausea (drug related AE, all grades) (Arm B BIW 2 mg (N = 2)): 1 (50) n (%) | Pruritus (drug related AE, Grade 3 and 4) (Arm B BIW 2 mg (N = 2)): 0 n (%) | Pruritus (drug related AE, all grades) (Arm B BIW 2 mg (N = 2)): 0 n (%) | Pulmonary embolism (drug related AE, Grade 3 and 4) (Arm B BIW 2 mg (N = 2)): 0 n (%) | Rash (drug related AE, all grades) (Arm B BIW 2 mg (N = 2)): 0 n (%) | Rash maculopapular (drug related AE, all grades) (Arm B BIW 2 mg (N = 2)): 0 n (%) | Sinusitis (drug related AE, all grades) (Arm B BIW 2 mg (N = 2)): 0 n (%) | Urticaria (drug related AE, Grade 3 and 4) (Arm B BIW 2 mg (N = 2)): 0 n (%) | Vision blurred (drug related AE, all grades) (Arm B BIW 2 mg (N = 2)): 0 n (%) | Vomiting (drug related AE, Grade 3 and 4) (Arm B BIW 2 mg (N = 2)): 0 n (%) | Vomiting (drug related AE, all grades) (Arm B BIW 2 mg (N = 2)): 0 n (%) | Weight decreased (drug related AE, all grades) (Arm B BIW 2 mg (N = 2)): 0 n (%) | No. of patients with DLTs (Arm B BIW 2 mg, 2 DLT evaluable patients): 0 | Abdominal distension (drug related AE, all grades) (Arm B BIW 4 mg (N = 2)): 1 (50) n (%) | Abdominal pain (drug related AE, Grade 3 and 4) (Arm B BIW 4 mg (N = 2)): 0 n (%) | Abdominal pain (drug related AE, all grades) (Arm B BIW 4 mg (N = 2)): 0 n (%) | Blood creatinine increased (drug related AE, all grades) (Arm B BIW 4 mg (N = 2)): 0 n (%) | Colitis (drug related AE, Grade 3 and 4) (Arm B BIW 4 mg (N = 2)): 0 n (%) | Cough (drug related AE, Grade 3 and 4) (Arm B BIW 4 mg (N = 2)): 0 n (%) | Cough (drug related AE, all grades) (Arm B BIW 4 mg (N = 2)): 0 n (%) | Decreased Appetite (drug related AE, Grade 3 and 4) (Arm B BIW 4 mg (N = 2)): 0 n (%) | Decreased Appetite (drug related AE, all grades) (Arm B BIW 4 mg (N = 2)): 0 n (%) | Dehydration (drug related AE, Grade 3 and 4) (Arm B BIW 4 mg (N = 2)): 0 n (%) | Dehydration (drug related AE, all grades) (Arm B BIW 4 mg (N = 2)): 0 n (%) | Dermatitis acneiform (drug related AE, all grades) (Arm B BIW 4 mg (N = 2)): 0 n (%) | Diarrhoea (drug related AE, Grade 3 and 4) (Arm B BIW 4 mg (N = 2)): 0 n (%) | Diarrhoea (drug related AE, all grades) (Arm B BIW 4 mg (N = 2)): 0 n (%) | Dry mouth (drug related AE, all grades) (Arm B BIW 4 mg (N = 2)): 0 n (%) | Dry skin (drug related AE, all grades) (Arm B BIW 4 mg (N = 2)): 0 n (%) | Dysgeusia (drug related AE, all grades) (Arm B BIW 4 mg (N = 2)): 1 (50) n (%) | Dyspepsia (drug related AE, all grades) (Arm B BIW 4 mg (N = 2)): 0 n (%) | Dysphonia (drug related AE, all grades) (Arm B BIW 4 mg (N = 2)): 0 n (%) | Fatigue (drug related AE, Grade 3 and 4) (Arm B BIW 4 mg (N = 2)): 0 n (%) | Fatigue (drug related AE, all grades) (Arm B BIW 4 mg (N = 2)): 1 (50) n (%) | Flatulence (drug related AE, all grades) (Arm B BIW 4 mg (N = 2)): 1 (50) n (%) | Hypocalcaemia (drug related AE, Grade 3 and 4) (Arm B BIW 4 mg (N = 2)): 0 n (%) | Hypocalcaemia (drug related AE, all grades) (Arm B BIW 4 mg (N = 2)): 0 n (%)
